Test systems include BT-549 breast; MDA-N; MCF7 breast; SNB-78 CNS; LXFL 529 NSCLC; DMS 273 small cell lung; HOP-18 NSCLC; M19-MEL melanoma; RXF-631 renal.
Holding throughout (assay): NCI-60 cell line screen, 48 h

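Dose response: 5 concentrations. Exposure: 48 h. Format: 96-well plates. Endpoint: linear interpolation; highest concentration if not reached. Here, GI50 denotes the concentration required for 50% inhibition of growth. TGI denotes the concentration required for complete inhibition of growth.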

For the compound `O=C(/C=N/O)Nc1cc(Cl)c(Cl)cc1Cl`, the results for the TGI with BT-549 breast, with MDA-N and in the assay with MCF7 breast were 89.3 µM, > 100 µM and > 100 µM, respectively.
For the compound `NC(=O)c1coc(C2OC(CO)C(O)C2O)n1` (centres undefined), the TGI in the assay with SNB-78 CNS, in the assay with LXFL 529 NSCLC, in the assay on DMS 273 small cell lung, with HOP-18 NSCLC and in the assay on M19-MEL melanoma was > 100 µM in each case.
For the compound `Cc1ccc(C(=O)Nc2ccc(S(=O)(=O)O)c3cc(S(=O)(=O)O)cc(S(=O)(=O)O)c23)cc1NC(=S)Nc1cc(C(=O)Nc2ccc(S(=O)(=O)O)c3cc(S(=O)(=O)O)cc(S(=O)(=O)O)c23)ccc1C`, the TGI in the assay on BT-549 breast, in the assay with MDA-N and with MCF7 breast was > 75 µM in each case.
As for `OC(COc1ccc(F)cc1)Cn1cnc2c(Cl)ncnc21` (centres undefined), the GI50 in the assay on BT-549 breast and in the assay on MCF7 breast was > 100 µM each time. Moreover, the TGI in the assay with BT-549 breast and in the assay on MCF7 breast was > 100 µM in each case.
`Cc1nccc2c3ccc(OCc4cn(-c5ccc(Cl)cc5)nn4)cc3n(CCCc3ccccc3)c12`: the results for the GI50 with BT-549 breast and in the assay with MCF7 breast were 7.35 µM and 1.49 µM, respectively. In addition, the TGI in the assay on BT-549 breast is 19.6 µM; in the assay with MCF7 breast, > 33.3 µM.
With `CS(=O)(=O)Nc1cccc(-c2cc(-c3ccccc3Cl)c(C#N)c(N)n2)c1`, in the assay with BT-549 breast, the GI50 was 0.532 µM and the TGI amounted to 15.4 µM. In addition, in the assay with MCF7 breast, the GI50 is 0.478 µM and the TGI was 14.3 µM.
For `O=c1cc(-c2ccccc2)oc2cc(O)cc(O)c12`, the TGI stood at 92.5 µM with SNB-78 CNS, 48.3 µM in the assay with LXFL 529 NSCLC, 34 µM with DMS 273 small cell lung and 73.5 µM in the assay with M19-MEL melanoma.
As for `N#CSc1c[nH]c2ccc(/C=C/C(=O)/C=C(/C=C/c3ccc4[nH]cc(SC#N)c4c3)OB(F)F)cc12`, in the assay with BT-549 breast, the GI50 was 0.835 µM and the TGI was 3.43 µM. In the assay with MCF7 breast, the GI50 was 0.458 µM and the TGI was determined as 3.5 µM.
For `CC(=O)N1c2ccccc2NC2=C(C(=O)N(Cc3ccccc3)C2(C)C)C1c1ccco1` (centres undefined) the same measures were 8.66 µM, > 25 µM, 0.368 µM and > 25 µM.
Turning to `O=C(O)c1ccc(S(=O)(=O)Nc2ccc3oc4c(c3c2)C(=O)CCC4)cc1`, in the assay on BT-549 breast, the GI50 was > 100 µM and the TGI was > 100 µM. In addition, in the assay with MCF7 breast, the GI50 was > 100 µM and the TGI is > 100 µM.
Turning to `COc1ccc(Cc2cc3c(cc2OCC(=O)O)OCO3)cc1`, the TGI with RXF-631 renal and with M19-MEL melanoma was > 100 µM each time.
Take `O=C(O)c1cc2ccccc2c(N=Nc2cc(C(F)(F)F)ccc2Cl)c1O`: the TGI with MDA-N and in the assay on MCF7 breast was > 100 µM throughout.
With `Nc1nc2cc3ccc(C4CC(O)C(CO)O4)cc3cc2c(=O)[nH]1` (centres undefined), the GI50 in the assay on BT-549 breast and in the assay with MCF7 breast was > 100 µM each time. In addition, the TGI in the assay on BT-549 breast and in the assay on MCF7 breast was > 100 µM throughout.
For the compound `COC(=O)NC1(NC(=O)OC)NC(=O)c2cc(OC)c(OC)c(OC)c2N1`, the TGI is > 100 µM in the assay on BT-549 breast, 16.9 µM in the assay with MDA-N and > 100 µM with MCF7 breast.
As to `CN(C)CCSc1cccc(-c2cc(-c3cccc(SCCN(C)C)c3)nc(SCCN(C)C)n2)c1`, the TGI in the assay with SNB-78 CNS was found to be 6.25 µM; in the assay on LXFL 529 NSCLC it was 3.89 µM.
`O=C(Nc1cccc(Cc2cccc(NC(=O)c3ccccc3)c2)c1)c1ccccc1`: the TGI with LXFL 529 NSCLC, in the assay with DMS 273 small cell lung, in the assay with HOP-18 NSCLC and in the assay on M19-MEL melanoma was > 100 µM each time.
`O=C(O)CCC/C=C\C[C@H]1C=CC(=O)/C1=C/C[C@@H](O)CCc1cccc(C(F)(F)F)c1`: in the assay on BT-549 breast, the GI50 was 2.83 µM and the TGI amounted to 11.3 µM. In the assay with MCF7 breast, the GI50 was 0.444 µM and the TGI was determined as 12.4 µM.
With `Cc1nc(-c2ccccc2)cc2c1c(=O)oc1ccccc12`, the TGI with SNB-78 CNS, in the assay with RXF-631 renal, with LXFL 529 NSCLC, with DMS 273 small cell lung and in the assay on HOP-18 NSCLC was > 100 µM throughout.
As for `CC(=O)O[C@H]1CCC2[C@@H]3CCC4=C(O)C(=O)C(C#N)C[C@]4(C)C3CC[C@@]21C` (some centres undefined), the TGI in the assay on SNB-78 CNS, in the assay with LXFL 529 NSCLC, in the assay on DMS 273 small cell lung and with M19-MEL melanoma was > 100 µM each time.
Turning to `CCCCCCCCCc1cc[n+](CC(=O)c2ccc([N+](=O)[O-])cc2)cc1`, in the assay with BT-549 breast, the GI50 was 1.27 µM and the TGI is 2.72 µM. Moreover, in the assay with MCF7 breast, the GI50 is 0.397 µM and the TGI came out at 1.79 µM.
Take `Cc1cc(O)c(C2=NN(c3ccc(S(N)(=O)=O)cc3)C(c3ccc(N(C)C)cc3)C2)c(C)c1Cl` (centres undefined): in the assay on BT-549 breast, the GI50 is 15.4 µM and the TGI was 43.3 µM. In the assay on MCF7 breast, the GI50 is 6.55 µM and the TGI came to 24.2 µM.
As for `COc1cc2c3c(n(CCCNCCCNCCCNCCCN)c(=O)c2cc1OC)-c1cc2c(cc1C3=O)OCO2`, the GI50 in the assay with BT-549 breast was 2.2 µM; in the assay with MCF7 breast it was 0.712 µM. Besides, the TGI in the assay on BT-549 breast was 6.44 µM; in the assay on MCF7 breast, 2.47 µM.
In the case of `C=C1c2[nH]c3ccccc3c2C2C(CC)C1CCN2C` (centres undefined), the TGI in the assay on BT-549 breast, in the assay with MDA-N and in the assay with MCF7 breast was > 100 µM in each case.
For the compound `CN1CCN(c2cc(C(=O)Nc3cc4cc(-c5cnn(C)c5)ccc4cn3)ccn2)CC1`, in the assay on BT-549 breast, the GI50 was 0.0781 µM and the TGI is 0.838 µM. Besides, in the assay on MCF7 breast, the GI50 was 0.0911 µM and the TGI turned out to be 0.399 µM.
In the case of `O=C(c1ccccc1)c1oc2ccc(Br)cc2c1-c1cnn(-c2ccccc2)c1`, the TGI with SNB-78 CNS, in the assay with LXFL 529 NSCLC, in the assay with DMS 273 small cell lung and in the assay on M19-MEL melanoma was > 100 µM in each case.
`CC1(C)OB(O)OC1(C)C`: the TGI in the assay on SNB-78 CNS, in the assay with LXFL 529 NSCLC, in the assay on DMS 273 small cell lung and in the assay with HOP-18 NSCLC was > 100 µM throughout.
On to `O=S(=O)(SCc1ccccc1)C(c1ccccc1)c1ccccc1`, for which the TGI was 75.7 µM in the assay with SNB-78 CNS, > 100 µM with LXFL 529 NSCLC, > 100 µM in the assay with DMS 273 small cell lung and > 100 µM in the assay on M19-MEL melanoma.
In the case of `CC#C/C(=N\OC[C@H]1COCCN1)c1ccc2ncnc(Nc3ccc(OCc4cccc(F)c4)c(Cl)c3)c2c1`, in the assay with BT-549 breast, the GI50 is 6.06 µM and the TGI worked out at 20.5 µM. For the same compound, in the assay with MCF7 breast, the GI50 is 1.57 µM and the TGI amounted to 3.05 µM.

The values above are taken from PubChem BioAssay (NCI).
